Test results taken from PubChem BioAssay AID1963961 (Molecular Pharmacology Branch, DTP, NCI, 2024).
One block for each molecule: values may come before it.

Test system: K98450-129-R-PDC multicell spheroids, viability
Assay: Anticancer human tumor K98450-129-R-PDC patient-derived colon adenocarcinoma cell line growth inhibition [PI3K]
Details: for viability, T/C: stronger effect = lower value
Method in brief: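 Tumor cells were combined with HUVEC and MSCs into spheroids, then dosed with PI3K-inhibitor combinations over half-log ranges capped near clinical Cmax or 10 microM.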
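Further: spheroids exposed to agents for seven days before read-out.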

- IC50 (curve of first compound, second compound 0.00316 µM): > 10 µM
- IC50 (curve of first compound, second compound 0.01 µM): > 10 µM
- IC50 (curve of first compound, second compound 0.0316 µM): > 10 µM
- IC50 (curve of first compound, second compound 0.1 µM): > 10 µM
- IC50 (curve of first compound, second compound 0.316 µM): > 10 µM
- IC50 (curve of first compound, second compound 1 µM): > 10 µM
SMILES: Cn1ncc(Cl)c1-c1cc(C(=O)NC(CN)Cc2cccc(F)c2)sc1Cl (centres undefined) + COc1c(OCCCN2CCOCC2)ccc2c3n(c(=NC(=O)c4cnc(N)nc4)nc12)CCN3
- viability, T/C (second compound 0.00316 µM, first compound 0.0316 µM): 112%
- viability, T/C (second compound 0.00316 µM, first compound 0.1 µM): 101%
- viability, T/C (second compound 0.00316 µM, first compound 0.316 µM): 99.2%
- viability, T/C (second compound 0.00316 µM, first compound 1 µM): 98.8%
- viability, T/C (second compound 0.00316 µM, first compound 3.16 µM): 89.2%
- viability, T/C (second compound 0.00316 µM, first compound 10 µM): 63.9%
- viability, T/C (second compound 0.01 µM, first compound 0.0316 µM): 117%
- viability, T/C (second compound 0.01 µM, first compound 0.1 µM): 103%
- viability, T/C (second compound 0.01 µM, first compound 0.316 µM): 103%
- viability, T/C (second compound 0.01 µM, first compound 1 µM): 83.5%
- viability, T/C (second compound 0.01 µM, first compound 3.16 µM): 78.9%
- viability, T/C (second compound 0.01 µM, first compound 10 µM): 76%
- viability, T/C (second compound 0.0316 µM, first compound 0.0316 µM): 86.9%
- viability, T/C (second compound 0.0316 µM, first compound 0.1 µM): 99.8%
- viability, T/C (second compound 0.0316 µM, first compound 0.316 µM): 90.9%
- viability, T/C (second compound 0.0316 µM, first compound 1 µM): 78.9%
- viability, T/C (second compound 0.0316 µM, first compound 3.16 µM): 89%
- viability, T/C (second compound 0.0316 µM, first compound 10 µM): 58.5%
- viability, T/C (second compound 0.1 µM, first compound 0.0316 µM): 72.4%
- viability, T/C (second compound 0.1 µM, first compound 0.1 µM): 70.4%
- viability, T/C (second compound 0.1 µM, first compound 0.316 µM): 78.9%
- viability, T/C (second compound 0.1 µM, first compound 1 µM): 83.3%
- viability, T/C (second compound 0.1 µM, first compound 3.16 µM): 69.5%
- viability, T/C (second compound 0.1 µM, first compound 10 µM): 70.3%
- viability, T/C (second compound 0.316 µM, first compound 0.0316 µM): 64.6%
- viability, T/C (second compound 0.316 µM, first compound 0.1 µM): 68.4%
- viability, T/C (second compound 0.316 µM, first compound 0.316 µM): 70.6%
- viability, T/C (second compound 0.316 µM, first compound 1 µM): 47.8%
- viability, T/C (second compound 0.316 µM, first compound 3.16 µM): 80.4%
- viability, T/C (second compound 0.316 µM, first compound 10 µM): 51%
- viability, T/C (second compound 1 µM, first compound 0.0316 µM): 52.4%
- viability, T/C (second compound 1 µM, first compound 0.1 µM): 71.5%
- viability, T/C (second compound 1 µM, first compound 0.316 µM): 48.7%
- viability, T/C (second compound 1 µM, first compound 1 µM): 65.7%
- viability, T/C (second compound 1 µM, first compound 3.16 µM): 59.8%
- viability, T/C (second compound 1 µM, first compound 10 µM): 41.7%

- IC50 (curve of compound): 1.07 µM [middle of 4 runs]
SMILES: Cn1cnc2c(F)c(Nc3ccc(Br)cc3Cl)c(C(=O)NOCCO)cc21
- viability, T/C (compound 0.00949 µM): 92.8% [middle of 4 runs]
- viability, T/C (compound 0.03 µM): 89.9% [middle of 4 runs]
- viability, T/C (compound 0.0949 µM): 93.2% [middle of 4 runs]
- viability, T/C (compound 0.3 µM): 83% [middle of 4 runs]
- viability, T/C (compound 0.949 µM): 52.5% [middle of 4 runs]
- viability, T/C (compound 3 µM): 22% [middle of 4 runs]
